{"source": "patent US12084459B2", "about": "“2-(4-{1-[6-(4-isopropyl-phenyl)-imidazo[2,1-b][1,3,4]thiadiazol-2-yl]-piperidin-4-ylmethyl}-piperazin-1-yl)-ethanol and use thereof” (Urifer Ltd., priority 2020, dated 2024)", "key": {"H358 derived xenografts": {"tested_on": "H358 derived xenografts", "test": "H358 derived xenografts in Nude mice", "type": "in vivo", "details": "25 mg/kg daily intraperitoneal in 1% Tween 80, H358 xenografts, FIG. 7", "text": "In vivo activity of the E266 (compound (I) of the present application) compared to that of the E260 (EP 2401283) in H358 derived xenografts in immune-compromised (Nude) mice.\nIn order to compare the relative efficacy of E266 and E260 in inhibiting the development and progression of malignant tumors in-vivo, the activity in xenograft model in mice was examined for both compounds. H358 derived xenografts in immune-compromised were elicited in (Nude) mice. The H358 cells, which are metastatic bronchioloalveolar carcinoma (BAC)-non-small cell lung cancer (NSCLC) cells, were subcutaneously injected to the back of the nude mice. When the developing xenografts reached 100 mm^3 size, the inflicted animals were divided into three groups, 10 mice in each group. One group received daily intraperitoneal injection of the solvent 1% Tween 80. This solvent/emulsifier is biocompatible and is approved for pharmaceutical applications in humans. The second group received daily intraperitoneal injection of 25 mg/kg E260 dissolved in 1% Tween 80, and the third group got daily intraperitoneal injection of 25 mg/kg, E266 dissolved in the 1% Tween 80, solvent. The progression of the elicited xenografts was monitored by measuring twice a week the volumes of the developing tumors."}, "normal Epithelial cells": {"tested_on": "normal Epithelial cells", "test": "effect on normal epithelial cells", "type": "cell-based", "details": "FIG. 2", "method": "Compound (I) was dissolved in 20% hydroxypropylcyclodextrane and the volume of administration (IP) was 10 ml/kg."}, "[1]": {"tested_on": "metastatic adenocarcinoma PC3 prostate Cancer cells", "test": "viability / killing of PC3 cells", "type": "cell-based", "details": "E266 versus E260; compound (I) as tartarate salt in 0.5% Tween-80; FIG. 6", "method": "(§1) The compound (I), as tartarate salt was dissolved in 0.5% Tween-80 to affect the viability of several cell lines as follows.\n(§2) The effect of the compound (I) (E266) on the growth profile of cancer cells which express Fer was tested. The cells that were tested were: the metastatic colon cancer cell line—SW620, the metastatic pancreatic ductal-adenocarcinoma SU.86.86 cancer cell-line—SU.86.86, the metastatic Triple Negative breast cancer cell line—MDA-MB-231, and the metastatic prostate cancer cell-line—PC3. The effect of the compound (I) (E266) on FS11 cells, a non malignant fibroblastic cell line, was also studied."}, "[2]": {"tested_on": "metastatic colon cancer SW620 cells", "test": "viability / killing of SW620 cells", "type": "cell-based", "details": "E266 versus E260; compound (I) as tartarate salt in 0.5% Tween-80; FIG. 3", "method": "as §1, §2"}}, "data": [{"smiles": "CC(C)c1ccc(-c2cn3nc(N4CCC(CN5CCN(CCO)CC5)CC4)sc3n2)cc1", "note": "[Compound E266, 2-(4-{1-[6-(4-isopropyl-phenyl)-imidazo[2,1-b][1,3,4]thiadiazol-2-yl]-piperidin-4-ylmethyl}-piperazin-1-yl)-ethanol]", "values": [{"measurement": "progression of the developing tumors (xenograft volume)", "setting": "H358 derived xenografts", "value": "managed to halt the progression of the developing tumors"}, {"measurement": "effect on normal Epithelial cells", "setting": "normal Epithelial cells", "value": "no effect"}, {"measurement": "killing metastatic adenocarcinoma PC3 prostate Cancer cells", "setting": "[1]", "value": "comparable activity"}, {"measurement": "killing metastatic colon cancer SW620 cells", "setting": "[2]", "value": "comparable activity"}]}]}
